82 compounds from PubChem BioAssay AID1198 (NMMLSC, 2008) can be followed below.

The EC50 is the concentration that produces a half-maximal response.

Molecules are shown by their SMILES. Calls of active or inactive are those of the source.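 How the source made its calls: active means EC50 under 10 microM for raising side scatter, a sign of cell differentiation; inactive means the rest, including fits that never converged.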

Test system in one assay: not listed separately
The assay can be described thus: activators of LNCaP prostate cell differentiation, dose response, flow cytometry, side scatter granularity (AID 1198). The conditions noted are these: LNCaP side scatter shift, flow cytometry, 4 days; at 30 µM (top of the series). On the technique in general: A flow cytometer gives signals particle by particle.
Consider `Cn1c(=O)[nH]c(=O)c2c1nc(Br)n2CCCSc1nc2ccccc2o1`, for which the side scatter activation is 1.98% (inactive).

On to `O=C(NCCCN1CCN(c2cccc(Cl)c2)CC1)c1cccc(N2CCCC2=O)c1`, for which the side scatter activation is 38.5% (inactive).

With `COc1ccc(CCN2CCC(Nc3nc4ccccc4n3Cc3ccc(F)cc3)CC2)cc1`, the side scatter activation is 40.2% (inactive).

Consider `Cc1ccc(CNc2nc3ccccc3n3nnnc23)cc1`, for which the side scatter activation is 40.2% (inactive).

As for `CC1CCCCN1CCNC(=O)c1cc2c(-c3ccccc3F)nn(C)c2s1` (configuration not stated), the side scatter activation was 84.3% (inactive).

Regarding `CCN1CCN(c2cc(C)c3cc(NC(=O)c4ccc(Br)o4)ccc3n2)CC1`, the side scatter activation is 73% (inactive).

As for `CN(CCNC(=O)C1CC(=O)N(c2ccc(F)c(Cl)c2)C1)Cc1ccccc1` (configuration not stated), the side scatter activation is 44.4% (inactive).

Consider `Cc1ccc(C)c(N2CCN(CCCNC(=O)Cn3cc4c(n3)CCCCC4)CC2)c1`, for which the side scatter activation is 0% (inactive).

Regarding `CCc1ccc(-c2nc(CN3CCC(C(=O)NCc4ccc(F)cc4)CC3)c(C)o2)cc1`, the side scatter activation is 0% (inactive).

On to `CCOC(=O)c1ccccc1NC(=O)Cn1c(-c2nonc2N)nc2ccccc21`, for which the side scatter activation is 44.4% (inactive).

In the case of `CCOC(=O)c1c(C)[nH]c(C(=O)COC(=O)C2CC2C)c1C` (configuration not stated), the side scatter activation is 73% (inactive).

Consider `O=C(NCCCN1CCN(c2ccc(F)cc2)CC1)c1cccc(N2CCCC2=O)c1`, for which the side scatter activation is 73% (inactive).

As for `O=c1cc(-c2ccccc2)[nH]c2ccccc12`, the side scatter activation was 1.98% (inactive).

As for `Cn1c(=O)cc(OCC(=O)NCCCN2CCN(c3ccccc3F)CC2)c2ccccc21`, the side scatter activation was 73% (inactive).

Consider `CCN(CC)CCCNC(=O)c1cc2c(-c3ccc(Cl)cc3)nn(C)c2s1`, for which the side scatter activation was 84.3% (inactive).

With `COc1ccccc1N1CCN(Cc2cc(Br)c(O)c3ncccc23)CC1`, the side scatter activation was 1.98% (inactive).

As to `COc1ccc2cc3cc(C(=O)Nc4ccccc4N4CCN(C)CC4)oc3nc2c1`, the side scatter activation was 44.4% (inactive).

Regarding `CCN(CCNC(=O)C1CCN(Cc2nc(-c3cccc(Cl)c3)oc2C)CC1)c1ccccc1`, the side scatter activation is 0% (inactive).

For `Clc1ccc(COC(Cn2ccnc2)c2ccc(Cl)cc2Cl)cc1` (configuration not stated), the side scatter activation is 0% (inactive).

As to `Cc1cc2c(=O)n(CC(=O)N3CCN(c4ccccc4)CC3)cnc2s1`, the side scatter activation is 84.3% (inactive).

In the case of `CCn1c(=O)cc(SCC(=O)NCCN2CCN(Cc3ccccc3)CC2)c2ccccc21`, the side scatter activation is 73% (inactive).

For `COc1ccccc1N1CCN(c2nc3ccccc3nc2C(C#N)C(=O)OC(C)C)CC1` (configuration not stated), the side scatter activation is 44.4% (inactive).

Consider `Cc1ccccc1-c1nc(CN2CCC(C(=O)NCCCN3CC(C)CC(C)C3)CC2)c(C)o1` (configuration not stated), for which the side scatter activation is 31.1% (inactive).

`Cc1ccc(Cl)cc1N1CCN(C(=O)c2cc3c(=O)n(C)c4ccccc4c3n2C)CC1`: the side scatter activation was 0% (inactive).

With `CN(C)CCCN1c2ccccc2CCc2ccc(Cl)cc21`, the side scatter activation was 73% (inactive).

For `CCCc1cc(-c2n[nH]c(C)c2-c2ccc(C(=O)OCC)o2)c(O)cc1O`, the side scatter activation was 1.98% (inactive).

Regarding `COc1ccc(N2CCN(CCCNC(=O)c3cc4sccc4n3C)CC2)cc1`, the side scatter activation is 40.2% (inactive).

With `O=C(c1ccccc1)c1ccc(N2CCNCC2)cc1`, the side scatter activation was 73% (inactive).

With `COc1ccc(-c2oc3ncn(CCN4CCOCC4)c(=N)c3c2-c2ccc(OC)cc2)cc1`, the side scatter activation was 44.4% (inactive).

As for `CCOC(=O)c1c(C)n(C)c2ccc(OCC(O)CNC(CC)CO)cc12` (configuration not stated), the side scatter activation is 38.5% (inactive).

Consider `CC(C)(C)c1ccc(C(O)CCCN2CCC(C(O)(c3ccccc3)c3ccccc3)CC2)cc1` (configuration not stated), for which the side scatter activation was 0% (inactive).

`Cn1nc(-c2ccc(Cl)cc2)c2cc(C(=O)NCCCN3CCCC3)sc21`: the side scatter activation was 84.3% (inactive).

For the compound `CCOC(=O)c1[nH]c(C)c(C(=O)N2CCc3ccccc32)c1C`, the side scatter activation is 1.98% (inactive).

Take `Nc1ccc(-n2ccnc2)cc1`: the side scatter activation is 84.3% (inactive).

Consider `Cc1oc(-c2ccc(Cl)cc2)nc1CN1CCC(C(=O)N2CCN(Cc3ccccc3)CC2)CC1`, for which the side scatter activation was 31.1% (inactive).

For `O=S1(=O)C=C(Sc2nc3ccccc3s2)c2ccccc21`, the side scatter activation was 0% (inactive).

With `CCOc1ccc(NC(=O)COc2nsnc2N2CCCCC2)cc1`, the side scatter activation was 0% (inactive).

For the compound `CCn1c(=N)n(CC(O)COc2cccc(C)c2)c2ccccc21` (configuration not stated), the side scatter activation was 0% (inactive).

Regarding `Cc1ccccc1CS(=O)(=O)CCC(=O)NCCCN1CCN(c2ccccc2F)CC1`, the side scatter activation is 31.1% (inactive).

On to `Cc1ccccc1-c1nc(CN2CCC(C(=O)NCCCN3CCCC3)CC2)c(C)o1`, for which the side scatter activation was 1.98% (inactive).

As for `CCCS(=O)(=O)N1CCCC(C(=O)NCCCN2CCN(c3ccc(F)cc3)CC2)C1` (configuration not stated), the side scatter activation was 1.98% (inactive).

On to `CCN(CC)CCNC(=O)c1cc2c(-c3ccc(Cl)cc3)nn(C)c2s1`, for which the side scatter activation was 31.1% (inactive).

For the compound `Cc1nc2ncnn2c(C)c1CCC(=O)NCCCN1CCN(c2cccc(Cl)c2)CC1`, the side scatter activation was 84.3% (inactive).

`CC(C)N1CCC2(CC1)N=C(c1ccc3c(c1)OCO3)CC(c1cc(Cl)ccc1O)N2` (configuration not stated): the side scatter activation is 1.98% (inactive).

Take `O=C(Cn1cc2c(n1)CCCC2)NCCCN1CCN(c2ccccc2F)CC1`: the side scatter activation was 31.1% (inactive).

For the compound `COc1ccc(Cc2nc(-c3ccc(-n4cccc4)cc3)no2)cc1OC`, the side scatter activation was 1.98% (inactive).

In the case of `CCN1CCCC1CNC(=O)c1cc2c(-c3ccc(Cl)cc3)nn(C)c2s1` (configuration not stated), the side scatter activation is 84.3% (inactive).

Consider `Cn1c(=O)cc(SCC(=O)NCCCN2CCN(c3ccccc3F)CC2)c2ccccc21`, for which the side scatter activation was 31.1% (inactive).

With `Cc1cc(C)nc(N2CCC(C(=O)Nc3ccc(Oc4ccccc4)cc3)CC2)n1`, the side scatter activation was 40.2% (inactive).

Consider `C[C@H]1CCC/C=C/C2C[C@H](O)CC2[C@H](O)/C=C/C(=O)O1` (some centres not stated), for which the side scatter activation is 0% (inactive).

`Cc1ccc(Nc2cc(=O)n(C3CCCCC3)c(=O)[nH]2)cc1C`: the side scatter activation was 0% (inactive).

For `O=C(CCN1C(=O)COc2ccccc21)NCCCN1CCN(c2ccc(F)cc2)CC1`, the side scatter activation was 40.2% (inactive).

With `Cc1ccccc1-c1nc(CN2CCC(C(=O)NCc3cccnc3)CC2)c(C)o1`, the side scatter activation is 38.5% (inactive).

As for `CCN(CC)CCNC(=O)c1ccc(N2CCCCC2)c(NS(=O)(=O)c2ccc(C)cc2)c1`, the side scatter activation is 44.4% (inactive).

`COc1ccc(-c2cc(C(F)(F)F)nc(N3CCN(Cc4ccccc4)CC3)n2)cc1OC`: the side scatter activation is 44.4% (inactive).

As to `CCCOc1ccccc1C1CC(=O)Nc2cc3c(cc21)OCO3` (configuration not stated), the side scatter activation was 0% (inactive).

Regarding `COc1ccc(N2CCN(CCCNC(=O)CCCn3c(=O)[nH]c4ccsc4c3=O)CC2)cc1`, the side scatter activation is 1.98% (inactive).

As to `COc1ccc(Nc2nc(N)nc(CN3CCC(Cc4ccccc4)CC3)n2)cc1`, the side scatter activation is 73% (inactive).

On to `COc1ccc(-c2noc(CCC(=O)NCCCN3CCC(Cc4ccccc4)CC3)n2)cc1`, for which the side scatter activation is 1.98% (inactive).

The test system of the next assay is LNCaP side scatter shift, flow cytometry, 4 days. The assay is described as above.
Details: not given
Turning to `CCN(CC)CC(=O)Nc1ccc(-c2nc3cc(NC(=O)CN(CC)CC)ccc3o2)cc1`, the EC50 is 0.83 µM.

Regarding `CCOc1cccc2cc(-c3cn4cc(C)ccc4n3)c(=O)oc12`, the EC50 is 20.6 µM (inactive).

Regarding `COc1ccc(-c2ccc(-c3noc(-c4ccccc4)n3)c(OC)n2)cc1`, the EC50 was 10.4 µM (inactive).

Consider `CCn1c(=O)cc(SCC(=O)NCCCN2CCN(c3ccccc3F)CC2)c2ccccc21`, for which the 50% effective concentration (EC50) was 8.92 µM.

For `Cn1c(C(=O)NCCCN2CCN(c3cccc(Cl)c3)CC2)cc2c(=O)n(C)c3ccccc3c21`, the EC50 is 0.87 µM.

With `COc1ccccc1NC(=O)c1nc[nH]c1C(=O)Nc1ccccc1OC`, the half-maximal effective concentration (EC50) is 9.52 µM.

In the case of `CN(CC(O)COc1ccc(OCC(O)CN(C)C2CCCCC2)cc1)C1CCCCC1` (configuration not stated), the EC50 was 4.32 µM.

Turning to `Cc1ccccc1-c1nc(CN2CCCC(C(=O)NCCCN3CCOCC3)C2)c(C)o1` (configuration not stated), the half-maximal effective concentration (EC50) is 7.03 µM.

Consider `COc1ccc(N2CCN(CCCNC(=O)CC3Oc4ccc(C)cc4NC3=O)CC2)cc1` (configuration not stated), for which the EC50 was 27 µM (inactive).

`Cc1ccc(OCC(O)Cn2c(=N)n(CCN3CCCCC3)c3ccccc32)cc1` (configuration not stated): the EC50 was 4.11 µM.

As for `COc1cc2nc(N3CCN(C(=O)C4COc5ccccc5O4)CC3)nc(N)c2cc1OC` (configuration not stated), the concentration for a half-maximal effect (EC50) was 3.95 µM.

With `Cc1cccc(-c2nsc(SCC(=O)Nc3nccs3)n2)c1`, the EC50 was 12 µM (inactive).

Regarding `CCCN(CCC)CCNC(=O)C1CCN(Cc2nc(-c3ccc(Cl)cc3)oc2C)CC1`, the concentration giving a half-maximal response (EC50) was 0.768 µM.

Regarding `CN1CCN(c2cc3c(c4c2[nH]c2ccccc24)C(=O)CC(C)(C)C3)CC1`, the EC50 was 3.65 µM.

With `Cc1cc(N2CCN(C)CC2)nc2ccc(NC(=O)c3ccc4c(c3)OCO4)cc12`, the EC50 was 10.4 µM (inactive).

Regarding `CCN1CCN(C(c2cccs2)C(C)NS(=O)(=O)c2ccc(Br)cc2)CC1` (configuration not stated), the EC50 is 15.2 µM (inactive).

`Cn1nc(-c2ccc(Cl)cc2)c2cc(C(=O)NCCCN3CCOCC3)sc21`: the EC50 was 5.53 µM.

As to `CCN1CCN(c2ncc(C(=O)Nc3cc(Cl)c(OC)cc3OC)c3ccccc23)CC1`, the EC50 was 5.59 µM.

For `Cc1noc(/C=C/c2ccco2)c1S(=O)(=O)N1CCC(C(=O)N2CCc3ccccc3C2)CC1`, the concentration giving a half-maximal response (EC50) was 5.2 µM.

Take `CCOc1ccc(-c2cc(C(=O)NCCCN3CCN(CC)CC3)c3ccccc3n2)cc1`: the half-maximal effective concentration (EC50) was 6.41 µM.

As to `Cc1oc(-c2ccc(Cl)cc2)nc1CN1CCC(C(=O)NCCCN2CCOCC2)CC1`, the EC50 is 3 µM.

Take `CCOc1ccccc1NC(=O)c1nc[nH]c1C(=O)Nc1ccccc1OCC`: the EC50 was 6.66 µM.

Turning to `CC1CCCCN1CCNC(=O)c1ccc2c(=O)n(CCc3ccccc3)c(=O)[nH]c2c1` (configuration not stated), the EC50 is 6.5 µM.
